Source: patent US20260108547A1, “LEVERAGING L-FUCOSE-MEDIATED SIGNALING TO INDUCE MONOCYTE-DERIVED DENDRITIC CELL POLARIZATION” (H. LEE MOFFITT CANCER CENTER AND RESEARCH INSTITUTE, INC., priority 2022, published 2026)

Experiments:
SW1 tumors = assay: Flow cytometric profiling of tumors and lymph nodes, SW1 tumors in C3H/HeN mice fed ± L-fucose and treated ± FTY720 (Table 1); type: in vivo, mouse; settings: for average # of CD8 stem central memory cells: tumors
Protocol: Tumors of SW1 or SM1 melanoma cells from […] or C57BL/6 mice, respectively) were digested using 1× tumor digest buffer (0.5 mg/mL Collagenase I, 0.5 mg/mL Collagenase IV, 0.25 mg/mL Hyalyronidase V, 0.1 mg/mL DNAse I in HBSS (Millipore Sigma (St. Louis, MO)). Tumors were homogenized using the Miltenyi MACs dissociator. Red blood cells were lysed using ACK lysis buffer (Life Technologies, (Grand Island, NY)). Tumor homogenate cells were counted using a standard hemocytometer.
Total TILs were gated first to single cells (based on forward scatter height vs width, followed by side scatter height vs. width). Live cells were gated from the Zombie negative population from the population above. TILs were gated based on splenocyte size from a control spleen. Individual immune subpopulations were sub-gated from the total TIL population using the following staining criteria: CD3^+ for CD3^+ T cells; CD3^+/CD4^+/CD8^− for CD4^+T cells; CD3^+/CD4^−/CD8^+ for CD8^+ T cells, CD11c^+/CD11b^+ for DCs; either NK1.1 (for C57/BL6 mice) or DX5 (for C3H/HeJ) for NK cells; CD11b^+/GR1^+ for MDSC-like cells; and F4/80^+ for macrophages. Single-cell suspensions from tumor and spleen tissue were stained with Live/Dead Zombie NIR (Biolegend, (San Diego, CA)) at 1:1,000 in PBS for 20 min. Cell suspensions were spun down and stained with the following with antibodies at 0.5 μg/ml per antibody: APC anti-mouse CD3, Pacific Blue anti-mouse CD4, BV785 anti-mouse CD8, PerCP anti-mouse CD25, FITC anti-mouse F4/80, PeCy7 anti-mouse CD11c, PE anti-mouse NK1.1 or PE anti-mouse DX5, and PerCP-Cy5.5 anti-mouse CD11b. After staining, the cells were washed and fixed (2% formaldehyde), followed by another wash and flow cytometric analysis. The compensation controls were prepared using 0.5 μg/mL of each antibody with UltraComp eBeads, (ThermoFisher Scientific (Waltham, MA)). All samples were subject to flow cytometric profiling using a LSR Flow Cytometer (BD Biosciences (San Jose, CA)) and analysis as indicated using FlowJo software (BD Biosciences (San Jose, CA)).
For all mouse models, 1×10^6 melanoma cells were injected subcutaneously in the right hind flanks of each mouse. […] This dosage is within ranges for dietary supplementation with L-fucose and other similar dietary sugars (e.g., D-mannose) in other rodent studies. When the tumors reached −2 cm^3, the animals were sacrificed, and the tumors either processed for flow cytometric profiling or for histological analysis as indicated.
Control vs. L-fucose±FTY720 models (FIG. 2): SW1 or SM1 mouse melanoma cells were injected into syngeneic C3H/HeN (or NSG) female or C57BL/6 male mice, respectively. Cells were injected as follows: parental SW1 cells for FIG. 1A; parental SM1 cells for FIG. 1E; SW1 cells stably expressing either empty vector (EV) or mouse fucose kinase (mFuk) for FIG. 1L; and parental SW1 cells for FIG. 1M. FTY720 was administered at 20 μg every 2 days starting on Day 12, just prior to the initiation of LF, until endpoint.

breast tumors = assay: Syngeneic breast tumor model, tumor growth and flow cytometry of immune cells; type: in vivo
Description: We observed that L-fucose reduces tumor growth in breast cancer and enriches for CD11c+ cells.

## C[C@H](O)[C@@H](O)[C@@H](O)[C@H](O)C=O [L-fucose]
SW1 tumors; Day 28
  average # of CD8 stem central memory cells: 0.00 per 10^6 cells
SW1 tumors; Day 42
  average # of CD8 stem central memory cells: 0.00 per 10^6 cells
SW1 tumors; SW1 model ± FTY720
  intratumoral CD4+T central and effector memory subpopulations: increases
SW1 tumors; midpoint (Day 28)
  cytotoxic CD4+T cells: transiently but significantly increased
SW1 tumors; oral L-fuc, SW1 model
  intratumoral monocyte-derived DCs (moDCs) and lymph node cDC2s: significant, albeit transient, increases
Breast tumors; flow cytometry
  CD11c+ cells in breast tumors: enrichment of CD11c+ cells
Breast tumors; syngeneic breast tumor model
  breast tumor growth: dose-dependent tumor suppression
